Reference: patent US12187728B2 (Raze Therapeutics, Inc., priority 2015, dated 2025)

Each molecule was assayed against T1, Human MTHFD2 (Homo sapiens, UniProt P13995) (assay: MTHFD2 Activity Assay (dehydrogenase activity, diaphorase/resazurin coupled fluorescence)). Details: inhibitory activity (IC50 and/or binding constant); 0.2 nM MTHFD2, 11 concentrations.
T1 construct: residues 36-350 in Uniport ID P13995; His6 (N); made in house; host or cells: E. coli
T1 sequence (P13995 36-350): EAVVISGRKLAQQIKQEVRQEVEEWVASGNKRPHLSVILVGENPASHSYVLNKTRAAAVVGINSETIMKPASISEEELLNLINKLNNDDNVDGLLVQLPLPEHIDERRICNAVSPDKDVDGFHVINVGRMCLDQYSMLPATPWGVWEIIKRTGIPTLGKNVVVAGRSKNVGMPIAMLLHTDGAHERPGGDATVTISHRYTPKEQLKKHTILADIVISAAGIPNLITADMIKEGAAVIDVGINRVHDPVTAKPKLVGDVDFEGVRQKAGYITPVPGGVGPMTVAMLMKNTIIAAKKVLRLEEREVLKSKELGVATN
Type: biochemical
Text: Human MTHFD2 (residues 36-350 in Uniport ID P13995) was expressed as an N-terminal His6 tagged protein and purified in E. coli using nickel capture followed by size-exclusion chromatography.
MTHFD2 dehydrogenase activity oxidizes methylene tetrahyrofolate to methenyl-tetrahydrofolate with the concomitant reduction of NAD to NADH. MTHFD2 dehydrogenase activity was followed by coupling the generation of NADH to diaphorase catalyzed […] of resazurin to fluorescent resorufin. Briefly, control (DMSO) or compound was incubated with 0.2 nM MTHFD2 for 15 minutes in 10.5 μl assay buffer containing 100 mM Hepes, pH 8.0, 5 mM MgCl2, 5 mM KH2PO4, 0.05% BSA, 0.01% Tween-20 in a 384 well Griener, low volume, black plate. 10 μl of substrate buffer containing 70 μM CH2-THF, 1 mM NAD^+, 100 μM Resazurin and 0.42 mg/ml diaphorase was then added to initiate the reaction and the reaction plate was incubated for 30 minutes. 5 μl of 250 mM EDTA was then added to each well to stop the reaction and MTHFD2 activity was quantified by measuring resorufin fluorescence emission at 598 nm following excitation at 525 nm. Activity in positive control wells containing the complete reaction mixture and DMSO alone was set to 100% while activity in negative control wells with the complete reaction mix without MTHFD2 was set to 0%. 11 concentrations of each compound were tested and the fluorescent data at each concentration was normalized to the positive and negative controls and represented as % inhibition. Median inhibitory concentration (IC50) was calculated by fitting % inhibition at each concentration to a 4 parameter logistic fit equation using Graphpad Prizm.
The compound numbers correspond to the compound numbers in Table A (i.e., the example numbers).
Cn1c(N[C@H]2CCC[C@@H](O)C2)nc2c1c(=O)n(Cc1ccc(Cl)c(Cl)c1)c(=O)n2C (single isomer, unassigned) [Example 78, 1-(3,4-dichlorobenzyl)-8-((1S,3R)-3-hydroxycyclohexylamino)-3,7-dimethyl-1H-purine-2,6(3H,7H)-dione or 1-(3,4-dichlorobenzyl)-8-((1R,3S)-3-hydroxycyclohexylamino)-3,7-dimethyl-1H-purine-2,6(3H,7H)-dione] was tested, and the IC50 was 10 to 1000 nM. Cn1c(N[C@H]2CCC[C@@H](O)C2)nc2c1c(=O)n(Cc1ccc(Cl)c(Cl)c1)c(=O)n2C (single isomer, unassigned) [Example 79, 1-(3,4-dichlorobenzyl)-8-((1S,3R)-3-hydroxycyclohexylamino)-3,7-dimethyl-1H-purine-2,6(3H,7H)-dione or 1-(3,4-dichlorobenzyl)-8-((1R,3S)-3-hydroxycyclohexylamino)-3,7-dimethyl-1H-purine-2,6(3H,7H)-dione] was tested, and the IC50 was 10 to 1000 nM. Work on Cn1c(N[C@H]2CCC[C@H](O)C2)nc2c1c(=O)n(Cc1ccc(Cl)c(Cl)c1)c(=O)n2C (single isomer, unassigned) [Example 80, 1-(3,4-dichlorobenzyl)-8-((1S,3S)-3-hydroxycyclohexylamino)-3,7-dimethyl-1H-purine-2,6(3H,7H)-dione or 1-(3,4-dichlorobenzyl)-8-((1R,3R)-3-hydroxycyclohexylamino)-3,7-dimethyl-1H-purine-2,6(3H,7H)-dione] yielded an IC50 of 10 to 1000 nM. Molecule Cn1c(N[C@H]2CCC[C@H](O)C2)nc2c1c(=O)n(Cc1ccc(Cl)c(Cl)c1)c(=O)n2C (single isomer, unassigned) [Example 81, 1-(3,4-dichlorobenzyl)-8-((1S,3S)-3-hydroxycyclohexylamino)-3,7-dimethyl-1H-purine-2,6(3H,7H)-dione or 1-(3,4-dichlorobenzyl)-8-((1R,3R)-3-hydroxycyclohexylamino)-3,7-dimethyl-1H-purine-2,6(3H,7H)-dione] has an IC50 of 10 to 1000 nM. Cn1c(N[C@H]2CCC(=O)NC2)nc2c1c(=O)n(Cc1ccc(Cl)c(Cl)c1)c(=O)n2C (single isomer, unassigned) [Example 82, (S)-1-(3,4-dichlorobenzyl)-3,7-dimethyl-8-(6-oxopiperidin-3-ylamino)-1H-purine-2,6(3H,7H)-dione or (R)-1-(3,4-dichlorobenzyl)-3,7-dimethyl-8-(6-oxopiperidin-3-ylamino)-1H-purine-2,6(3H,7H)-dione] showed an IC50 of 10 to 1000 nM. With Cn1c(N[C@H]2CCC(=O)NC2)nc2c1c(=O)n(Cc1ccc(Cl)c(Cl)c1)c(=O)n2C (single isomer, unassigned) [Example 83, (5)-1-(3,4-dichlorobenzyl)-3,7-dimethyl-8-(6-oxopiperidin-3-ylamino)-1H-purine-2,6(3H,7H)-dione or (R)-1-(3,4-dichlorobenzyl)-3,7-dimethyl-8-(6-oxopiperidin-3-ylamino)-1H-purine-2,6(3H,7H)-dione] the IC50 was 10 to 1000 nM. In the case of Cn1c(N[C@H]2CC[C@@H](O)C2)nc2c1c(=O)n(Cc1ccc(C(F)(F)F)cc1)c(=O)n2C (single isomer, unassigned) [Example 133, 8-((1S,3R)-3-hydroxycyclopentylamino)-3,7-dimethyl-1-(4-(trifluoromethyl)benzyl)-1H-purine-2,6(3H,7H)-dione or 8-((1R,3S)-3-hydroxycyclopentylamino)-3,7-dimethyl-1-(4-(trifluoromethyl)benzyl)-1H-purine-2,6(3H,7H)-dione], the IC50 is reported as 1000 to 5000 nM. For Cn1c(N[C@@H]2CC[C@@H](O)C2)nc2c1c(=O)n(Cc1ccc(C(F)(F)F)cc1)c(=O)n2C (single isomer, unassigned) [Example 144, 8-((1R,3R)-3-hydroxycyclopentylamino)-3,7-dimethyl-1-(4-(trifluoromethyl)benzyl)-1H-purine-2,6(3H,7H)-dione or 8-((1S,3S)-3-hydroxycyclopentylamino)-3,7-dimethyl-1-(4-(trifluoromethyl)benzyl)-1H-purine-2,6(3H,7H)-dione], the IC50 was 1000 to 5000 nM. With Cn1c(N[C@H]2CC[C@@H](O)C2)nc2c1c(=O)n(Cc1ccc(C(F)(F)F)cc1)c(=O)n2C (single isomer, unassigned) [Example 156, 8-((1S,3R)-3-hydroxycyclopentylamino)-3,7-dimethyl-1-(4-(trifluoromethyl)benzyl)-1H-purine-2,6(3H,7H)-dione or 8-((1R,3S)-3-hydroxycyclopentylamino)-3,7-dimethyl-1-(4-(trifluoromethyl)benzyl)-1H-purine-2,6(3H,7H)-dione] the IC50 was 1000 to 5000 nM. For Cn1c(N[C@@H]2CCC[C@H](C(=O)O)C2)nc2c1c(=O)n(Cc1ccc(Cl)c(Cl)c1)c(=O)n2C (single isomer, unassigned) [Example 184, (1S,3R)-3-(1-(3,4-dichlorobenzyl)-3,7-dimethyl-2,6-dioxo-2,3,6,7-tetrahydro-1H-purin-8-ylamino)cyclohexanecarboxylic acid or (1R,3S)-3-(1-(3,4-dichlorobenzyl)-3,7-dimethyl-2,6-dioxo-2,3,6,7-tetrahydro-1H-purin-8-ylamino)cyclohexanecarboxylic acid], the IC50 was 10 to 1000 nM. Molecule Cn1c(N[C@H]2CCC[C@H](C(=O)O)C2)nc2c1c(=O)n(Cc1ccc(Cl)c(Cl)c1)c(=O)n2C (single isomer, unassigned) [Example 186, (1S,3S)-3-(1-(3,4-dichlorobenzyl)-3,7-dimethyl-2,6-dioxo-2,3,6,7-tetrahydro-1H-purin-8-ylamino)cyclohexanecarboxylic or (1R,3R)-3-(1-(3,4-dichlorobenzyl)-3,7-dimethyl-2,6-dioxo-2,3,6,7-tetrahydro-1H-purin-8-ylamino)cyclohexanecarboxylic acid] has an IC50 of 10 to 1000 nM. With Cn1c(N[C@@H]2CCC[C@H](C(=O)O)C2)nc2c1c(=O)n(Cc1ccc(Cl)c(Cl)c1)c(=O)n2C (single isomer, unassigned) [Example 187, (1S,3R)-3-(1-(3,4-dichlorobenzyl)-3,7-dimethyl-2,6-dioxo-2,3,6,7-tetrahydro-1H-purin-8-ylamino)cyclohexanecarboxylic acid or (1R,3S)-3-(1-(3,4-dichlorobenzyl)-3,7-dimethyl-2,6-dioxo-2,3,6,7-tetrahydro-1H-purin-8-ylamino)cyclohexanecarboxylic acid] the IC50 was 10 to 1000 nM. With Cn1c(N[C@H]2CCC[C@H](C(=O)O)C2)nc2c1c(=O)n(Cc1ccc(Cl)c(Cl)c1)c(=O)n2C (single isomer, unassigned) [Example 209, (1S,3S)-3-(1-(3,4-dichlorobenzyl)-3,7-dimethyl-2,6-dioxo-2,3,6,7-tetrahydro-1H-purin-8-ylamino)cyclohexanecarboxylic or (1R,3R)-3-(1-(3,4-dichlorobenzyl)-3,7-dimethyl-2,6-dioxo-2,3,6,7-tetrahydro-1H-purin-8-ylamino)cyclohexanecarboxylic acid] the IC50 was 10 to 1000 nM. Cn1c(N[C@H]2CCC(=O)NC2)nc2c1c(=O)n(Cc1cc3ccccc3[nH]1)c(=O)n2C (single isomer, unassigned) [Example 228, (S)-1-((1H-indol-2-yl)methyl)-3,7-dimethyl-8-(6-oxopiperidin-3-ylamino)-1H-purine-2,6(3H,7H)-dione or (R)-1-((1H-indol-2-yl)methyl)-3,7-dimethyl-8-(6-oxopiperidin-3-ylamino)-1H-purine-2,6(3H,7H)-dione] was tested, and the IC50 was 1000 to 5000 nM.
